Measurements from ChEMBL document CHEMBL5465560, “Selectivity Literature for EUbOPEN Chemogenomic Library” (2024).

Key:
[1] = molecular target: Casein kinase I isoform gamma-2 (Homo sapiens) (UniProt P78368); experiment: Selectivity interaction (Ambit KINOMEscan and KiNATiv profiling in Jurkat cells) EUB0000090b CSNK1G2; assay type: cell-based; settings: at 1 µM
[2] = molecular target: Protein arginine N-methyltransferase 8 (Homo sapiens, UniProt Q9NR22); settings: at 10 µM
[3] = molecular target: Histone-lysine N-methyltransferase 2C (Homo sapiens) (UniProt Q8NEZ4); settings: at 1 µM
[4] = molecular target: Glycogen synthase kinase-3 beta (Homo sapiens, UniProt P49841); experiment: Selectivity interaction (Kinase panel (33PanQinase(R) Activity Assay)) EUB0000877a GSK3B
[5] = molecular target: T1, Mitogen-activated protein kinase 15 (Homo sapiens) (UniProt Q8TD08); experiment: Selectivity interaction (KinomeScan (DiscoverX)) EUB0000695a MAPK15; settings: at 100 nM
T1 sequence (whole entry): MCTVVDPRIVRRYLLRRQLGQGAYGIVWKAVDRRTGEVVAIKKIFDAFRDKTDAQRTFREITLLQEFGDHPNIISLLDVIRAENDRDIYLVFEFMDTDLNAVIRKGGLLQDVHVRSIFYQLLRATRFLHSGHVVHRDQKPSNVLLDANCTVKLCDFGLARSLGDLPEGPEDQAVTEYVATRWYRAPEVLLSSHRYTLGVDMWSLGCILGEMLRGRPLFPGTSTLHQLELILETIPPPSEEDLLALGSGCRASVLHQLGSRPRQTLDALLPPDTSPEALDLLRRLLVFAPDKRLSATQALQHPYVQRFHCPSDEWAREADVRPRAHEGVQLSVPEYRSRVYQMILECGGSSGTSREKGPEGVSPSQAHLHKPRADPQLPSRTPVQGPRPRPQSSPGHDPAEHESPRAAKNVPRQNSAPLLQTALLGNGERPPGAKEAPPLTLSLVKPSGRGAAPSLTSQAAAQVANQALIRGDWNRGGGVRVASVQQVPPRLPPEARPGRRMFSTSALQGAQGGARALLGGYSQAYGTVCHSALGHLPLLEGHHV

[6] = molecular target: Interferon-induced, double-stranded RNA-activated protein kinase (Homo sapiens) (UniProt P19525); experiment: Selectivity interaction (KinomeScan (DiscoverX)) EUB0000699a EIF2AK2; settings: at 10 µM
[7] = molecular target: Tyrosine-protein kinase Fyn (Homo sapiens) (UniProt P06241); settings: at 10 µM
Sequence of Tyrosine-protein kinase Fyn (Homo sapiens) (P06241 2-537 limits assumed): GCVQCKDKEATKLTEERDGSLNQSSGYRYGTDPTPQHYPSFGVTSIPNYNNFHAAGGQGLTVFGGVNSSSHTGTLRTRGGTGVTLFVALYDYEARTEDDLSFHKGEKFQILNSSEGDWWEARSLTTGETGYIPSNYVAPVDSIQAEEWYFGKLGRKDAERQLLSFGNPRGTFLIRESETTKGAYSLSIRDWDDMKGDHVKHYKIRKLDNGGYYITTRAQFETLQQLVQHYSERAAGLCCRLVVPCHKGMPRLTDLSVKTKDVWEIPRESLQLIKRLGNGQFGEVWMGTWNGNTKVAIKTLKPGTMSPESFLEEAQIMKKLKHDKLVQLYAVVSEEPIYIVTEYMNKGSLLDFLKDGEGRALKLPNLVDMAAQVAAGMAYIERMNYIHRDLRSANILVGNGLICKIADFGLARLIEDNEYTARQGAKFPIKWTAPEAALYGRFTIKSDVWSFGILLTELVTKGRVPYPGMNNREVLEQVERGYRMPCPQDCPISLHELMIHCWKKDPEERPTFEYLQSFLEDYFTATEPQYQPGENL

[8] = molecular target: SRSF protein kinase 2 (Homo sapiens) (UniProt P78362); experiment: Selectivity interaction (KinomeScan (DiscoverX)) EUB0001079a SRPK2; settings: at 1 µM
[9] = molecular target: Transient receptor potential cation channel subfamily M member 6 (Homo sapiens) (UniProt Q9BX84); experiment: Selectivity interaction (KinomeScan (DiscoverX)) EUB0001079a TRPM6; settings: at 1 µM
[10] = molecular target: T2, Serine/threonine-protein kinase DCLK1 (Homo sapiens) (UniProt O15075); experiment: Selectivity interaction (KinomeScan (DiscoverX)) EUB0001079a DCLK1; settings: at 1 µM
T2 sequence (whole entry): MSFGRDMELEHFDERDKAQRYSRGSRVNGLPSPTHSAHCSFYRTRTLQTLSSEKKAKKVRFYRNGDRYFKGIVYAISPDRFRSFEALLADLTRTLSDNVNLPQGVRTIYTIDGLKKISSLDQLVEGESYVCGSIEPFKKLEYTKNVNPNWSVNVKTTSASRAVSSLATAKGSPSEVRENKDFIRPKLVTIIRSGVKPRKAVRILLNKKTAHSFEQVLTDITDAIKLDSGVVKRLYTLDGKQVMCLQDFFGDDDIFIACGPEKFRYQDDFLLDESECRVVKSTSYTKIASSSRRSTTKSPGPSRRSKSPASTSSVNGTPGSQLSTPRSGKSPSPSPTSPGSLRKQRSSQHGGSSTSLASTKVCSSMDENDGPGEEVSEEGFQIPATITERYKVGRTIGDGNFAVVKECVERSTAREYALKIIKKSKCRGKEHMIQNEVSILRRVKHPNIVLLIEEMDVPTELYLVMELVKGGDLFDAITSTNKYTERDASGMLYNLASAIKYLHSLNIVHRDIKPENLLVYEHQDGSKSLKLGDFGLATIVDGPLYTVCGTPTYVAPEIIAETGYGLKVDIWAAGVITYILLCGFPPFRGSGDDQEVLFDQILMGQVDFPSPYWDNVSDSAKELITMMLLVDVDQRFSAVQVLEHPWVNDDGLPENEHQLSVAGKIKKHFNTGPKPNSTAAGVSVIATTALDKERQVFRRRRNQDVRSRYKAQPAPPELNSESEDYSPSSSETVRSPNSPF

[11] = molecular target: Cyclin-dependent kinase 5/CDK5 activator 1 (Homo sapiens) (UniProt Q00535+Q15078); experiment: Selectivity interaction (ProQinase) EUB0000171b CDK5; assay type: protein-complex assay; settings: at 1 µM
[12] = molecular target: Serine/threonine-protein kinase Nek6 (Homo sapiens) (UniProt Q9HC98); experiment: Selectivity interaction (KinomeScan (DiscoverX)) EUB0000092b NEK6; settings: at 10 µM
Sequence of Serine/threonine-protein kinase Nek6 (Homo sapiens) (Q9HC98 whole entry, canonical isoform): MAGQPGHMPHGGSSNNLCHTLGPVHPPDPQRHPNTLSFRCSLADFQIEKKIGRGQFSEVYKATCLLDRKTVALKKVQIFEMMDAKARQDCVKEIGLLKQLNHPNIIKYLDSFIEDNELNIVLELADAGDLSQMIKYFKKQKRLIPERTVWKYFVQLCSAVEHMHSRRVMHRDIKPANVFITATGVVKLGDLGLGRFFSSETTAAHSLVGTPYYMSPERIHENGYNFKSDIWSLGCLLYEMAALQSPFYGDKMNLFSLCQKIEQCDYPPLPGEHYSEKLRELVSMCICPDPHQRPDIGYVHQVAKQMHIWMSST

[13] = molecular target: T3, Casein kinase I isoform delta (Homo sapiens, UniProt P48730); experiment: Selectivity interaction (Upstate Kinase Profiler service (Millipore)) EUB0000056c CSNK1D; settings: at 1 µM
T3 sequence (P48730 whole entry, looked up, canonical isoform): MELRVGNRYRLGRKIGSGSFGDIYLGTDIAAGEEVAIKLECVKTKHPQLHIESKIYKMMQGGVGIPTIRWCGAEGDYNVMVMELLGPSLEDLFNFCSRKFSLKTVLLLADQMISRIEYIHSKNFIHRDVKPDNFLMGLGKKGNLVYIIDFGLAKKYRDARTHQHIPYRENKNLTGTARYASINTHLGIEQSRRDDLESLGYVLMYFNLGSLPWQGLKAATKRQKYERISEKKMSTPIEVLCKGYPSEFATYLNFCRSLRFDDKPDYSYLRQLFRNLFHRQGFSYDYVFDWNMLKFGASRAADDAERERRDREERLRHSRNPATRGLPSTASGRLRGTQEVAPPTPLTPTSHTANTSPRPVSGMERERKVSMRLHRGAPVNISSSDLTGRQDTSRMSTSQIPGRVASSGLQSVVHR

[14] = molecular target: Serine/threonine-protein kinase pim-1 (Homo sapiens, UniProt P11309); experiment: Selectivity interaction (KinomeScan (DiscoverX)) EUB0000655a PIM1; settings: at 10 µM
[15] = molecular target: T4, Aurora kinase C (Homo sapiens) (UniProt Q9UQB9); experiment: Selectivity interaction (KinomeScan (DiscoverX)) EUB0000618a AURKC; settings: at 10 µM
T4 sequence (whole entry): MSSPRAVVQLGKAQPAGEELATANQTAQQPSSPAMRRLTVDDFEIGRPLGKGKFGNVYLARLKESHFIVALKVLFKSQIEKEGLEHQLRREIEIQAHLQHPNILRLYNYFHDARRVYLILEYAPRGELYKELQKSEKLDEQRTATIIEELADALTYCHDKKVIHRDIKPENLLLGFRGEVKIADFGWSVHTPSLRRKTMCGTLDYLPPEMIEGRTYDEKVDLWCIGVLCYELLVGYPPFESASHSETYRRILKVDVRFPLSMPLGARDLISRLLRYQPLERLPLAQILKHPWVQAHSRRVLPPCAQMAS

[16] = molecular target: Serine/threonine-protein kinase WNK1 (Homo sapiens) (UniProt Q9H4A3); experiment: Selectivity interaction (KinomeScan (DiscoverX)) EUB0000607a WNK1; settings: at 10 µM
Sequence of Serine/threonine-protein kinase WNK1 (Homo sapiens) (Q9H4A3 whole entry, looked up): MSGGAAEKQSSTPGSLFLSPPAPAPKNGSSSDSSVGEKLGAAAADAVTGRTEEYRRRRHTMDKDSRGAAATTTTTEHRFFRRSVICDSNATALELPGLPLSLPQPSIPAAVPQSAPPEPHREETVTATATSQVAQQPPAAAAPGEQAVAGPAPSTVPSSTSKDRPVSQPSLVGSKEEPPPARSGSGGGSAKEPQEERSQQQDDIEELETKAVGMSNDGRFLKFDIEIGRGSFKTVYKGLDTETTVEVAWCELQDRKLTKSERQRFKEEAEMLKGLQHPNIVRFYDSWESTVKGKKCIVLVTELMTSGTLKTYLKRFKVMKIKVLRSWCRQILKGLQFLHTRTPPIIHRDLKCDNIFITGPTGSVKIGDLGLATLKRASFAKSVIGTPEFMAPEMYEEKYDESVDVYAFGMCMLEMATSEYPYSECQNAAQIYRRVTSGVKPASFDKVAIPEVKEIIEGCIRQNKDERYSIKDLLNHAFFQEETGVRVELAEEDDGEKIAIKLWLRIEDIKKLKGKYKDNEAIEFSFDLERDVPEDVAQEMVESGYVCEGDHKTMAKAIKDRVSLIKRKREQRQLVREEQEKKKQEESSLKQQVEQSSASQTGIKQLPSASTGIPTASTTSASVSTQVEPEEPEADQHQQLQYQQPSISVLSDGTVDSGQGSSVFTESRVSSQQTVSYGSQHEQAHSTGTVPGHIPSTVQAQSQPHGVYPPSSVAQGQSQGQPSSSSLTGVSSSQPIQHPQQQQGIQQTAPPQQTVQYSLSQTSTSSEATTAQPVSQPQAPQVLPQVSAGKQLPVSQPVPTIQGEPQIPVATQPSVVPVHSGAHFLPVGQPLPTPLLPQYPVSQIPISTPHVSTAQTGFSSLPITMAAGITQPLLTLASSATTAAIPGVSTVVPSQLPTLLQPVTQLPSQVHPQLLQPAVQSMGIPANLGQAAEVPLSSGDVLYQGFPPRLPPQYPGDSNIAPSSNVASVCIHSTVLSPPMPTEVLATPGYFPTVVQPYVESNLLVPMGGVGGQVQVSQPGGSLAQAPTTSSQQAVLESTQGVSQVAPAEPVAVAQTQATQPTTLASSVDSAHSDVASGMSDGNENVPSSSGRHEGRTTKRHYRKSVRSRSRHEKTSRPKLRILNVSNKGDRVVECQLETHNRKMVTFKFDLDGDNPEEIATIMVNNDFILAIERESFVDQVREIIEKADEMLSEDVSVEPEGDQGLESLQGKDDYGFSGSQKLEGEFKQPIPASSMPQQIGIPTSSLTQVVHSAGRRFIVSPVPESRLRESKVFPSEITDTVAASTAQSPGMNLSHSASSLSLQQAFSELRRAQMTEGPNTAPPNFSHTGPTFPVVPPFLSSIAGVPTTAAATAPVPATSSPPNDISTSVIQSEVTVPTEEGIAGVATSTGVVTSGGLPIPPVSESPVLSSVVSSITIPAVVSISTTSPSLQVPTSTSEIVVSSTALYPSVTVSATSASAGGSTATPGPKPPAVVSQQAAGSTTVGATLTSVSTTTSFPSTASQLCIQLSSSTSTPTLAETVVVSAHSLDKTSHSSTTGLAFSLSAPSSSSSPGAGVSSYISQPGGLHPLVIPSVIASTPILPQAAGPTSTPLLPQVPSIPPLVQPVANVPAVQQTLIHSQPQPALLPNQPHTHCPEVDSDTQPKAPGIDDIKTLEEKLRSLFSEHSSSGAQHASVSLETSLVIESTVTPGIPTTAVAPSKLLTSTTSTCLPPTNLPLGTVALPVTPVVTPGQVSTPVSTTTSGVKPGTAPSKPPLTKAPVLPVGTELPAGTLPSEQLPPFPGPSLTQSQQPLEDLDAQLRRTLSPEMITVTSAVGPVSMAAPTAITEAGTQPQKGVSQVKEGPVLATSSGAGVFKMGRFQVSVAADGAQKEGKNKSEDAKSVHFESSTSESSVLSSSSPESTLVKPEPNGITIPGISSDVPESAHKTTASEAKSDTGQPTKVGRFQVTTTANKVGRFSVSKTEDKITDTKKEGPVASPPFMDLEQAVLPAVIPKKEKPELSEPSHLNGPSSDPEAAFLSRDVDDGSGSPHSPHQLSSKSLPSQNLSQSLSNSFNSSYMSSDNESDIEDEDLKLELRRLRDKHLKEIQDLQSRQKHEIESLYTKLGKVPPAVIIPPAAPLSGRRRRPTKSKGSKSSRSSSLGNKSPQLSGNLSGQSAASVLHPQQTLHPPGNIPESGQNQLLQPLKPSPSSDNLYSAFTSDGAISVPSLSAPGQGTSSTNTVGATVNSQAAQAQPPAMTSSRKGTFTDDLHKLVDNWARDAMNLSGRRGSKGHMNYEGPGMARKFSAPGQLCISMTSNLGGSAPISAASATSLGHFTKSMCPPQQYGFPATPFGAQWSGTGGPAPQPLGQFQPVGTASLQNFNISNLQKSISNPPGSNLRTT

[17] = molecular target: Cyclin-dependent kinase 6 (Homo sapiens) (UniProt Q00534); experiment: Selectivity interaction (Kinase panel (KiNativ target engagement assay in Jurkat cells)) EUB0001635a CDK6; assay type: cell-based; settings: Selectivity number of off-targets 0.0, Selectivity number of targets 233.0, Source Knowledge https://www.sciencedirect.com/science/article/pii/S2451945619300674?via%3Dihub, at 1 µM
[18] = molecular target: Serine/threonine-protein kinase SIK2 (Homo sapiens) (UniProt Q9H0K1); experiment: Selectivity interaction (KinomeScan (DiscoverX)) EUB0000666a SIK2; settings: at 10 µM
Sequence of Serine/threonine-protein kinase SIK2 (Homo sapiens) (Q9H0K1 whole entry, looked up, canonical isoform): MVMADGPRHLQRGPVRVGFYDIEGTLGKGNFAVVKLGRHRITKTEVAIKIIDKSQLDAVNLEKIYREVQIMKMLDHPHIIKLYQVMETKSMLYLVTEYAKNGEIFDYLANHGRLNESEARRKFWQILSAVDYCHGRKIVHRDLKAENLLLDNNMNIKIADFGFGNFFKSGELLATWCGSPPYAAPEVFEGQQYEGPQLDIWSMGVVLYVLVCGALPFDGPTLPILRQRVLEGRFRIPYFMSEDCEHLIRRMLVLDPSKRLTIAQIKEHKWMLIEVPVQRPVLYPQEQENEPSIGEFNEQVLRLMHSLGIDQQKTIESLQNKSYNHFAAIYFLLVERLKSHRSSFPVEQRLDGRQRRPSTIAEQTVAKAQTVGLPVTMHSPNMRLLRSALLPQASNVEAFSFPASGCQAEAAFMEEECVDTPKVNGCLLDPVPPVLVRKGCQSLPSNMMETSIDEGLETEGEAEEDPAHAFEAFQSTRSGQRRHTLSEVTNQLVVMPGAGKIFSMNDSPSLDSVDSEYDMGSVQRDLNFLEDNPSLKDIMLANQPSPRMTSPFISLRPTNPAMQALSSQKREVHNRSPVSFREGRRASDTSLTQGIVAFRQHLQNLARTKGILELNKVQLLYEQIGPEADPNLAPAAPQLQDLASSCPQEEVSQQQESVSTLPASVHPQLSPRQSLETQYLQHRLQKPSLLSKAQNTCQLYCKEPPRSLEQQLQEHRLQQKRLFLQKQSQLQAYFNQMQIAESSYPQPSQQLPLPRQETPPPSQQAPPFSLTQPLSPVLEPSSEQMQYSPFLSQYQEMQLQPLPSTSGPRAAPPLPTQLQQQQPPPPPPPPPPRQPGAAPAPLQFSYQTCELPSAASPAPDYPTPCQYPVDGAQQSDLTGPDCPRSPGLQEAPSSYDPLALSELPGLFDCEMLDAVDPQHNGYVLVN

[19] = molecular target: T3, Casein kinase I isoform delta; experiment: Selectivity interaction (Kinase panel (DSF assay)) EUB0001558a CSNK1D

Sequence of Protein arginine N-methyltransferase 8 (Q9NR22 2-394 limits assumed): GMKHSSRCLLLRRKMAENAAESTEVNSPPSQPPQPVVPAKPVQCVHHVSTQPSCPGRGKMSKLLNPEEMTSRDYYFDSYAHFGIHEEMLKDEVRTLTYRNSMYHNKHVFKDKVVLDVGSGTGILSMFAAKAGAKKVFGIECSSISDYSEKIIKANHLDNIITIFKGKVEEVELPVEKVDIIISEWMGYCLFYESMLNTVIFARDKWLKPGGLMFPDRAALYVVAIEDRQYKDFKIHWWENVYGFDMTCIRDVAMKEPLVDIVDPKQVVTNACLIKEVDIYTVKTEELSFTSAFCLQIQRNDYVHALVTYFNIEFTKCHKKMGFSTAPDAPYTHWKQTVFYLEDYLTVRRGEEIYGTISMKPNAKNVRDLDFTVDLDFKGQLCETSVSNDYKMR

CN(C)C/C=C/C(=O)Nc1ccc(C(=O)N2CCCC(Nc3ncc(Cl)c(-c4c[nH]c5ccccc45)n3)C2)cc1 (centres undefined) gave a % of control [1] of 98%.
For CNCCN1CCC(c2cc(CN(C)C(=O)c3cccc(Oc4ccccc4)c3)ccn2)CC1, the % activity [2] was 82% and the % activity [3] was > 90%.
In the case of CCC(=O)N1CC[C@H](Nc2ncnc3c2CN(c2cnc(OC)c(C(F)(F)F)c2)CC3)C1 [LENIOLISIB], the IC50 [4] is reported as > 10 µM.
Compound Cc1cc(F)c(C(=O)Nc2cccc(-c3nncn3C(C)C)n2)cc1-n1cnc(C2CC2)c1 has a % of control [5] of 100%.
For CCN(CC)CCCCNc1ncc2cc(-c3cc(OC)cc(OC)c3)c(NC(=O)NC(C)(C)C)nc2n1, the % of control [6] was 24% and the % of control [7] was 100%.
Nc1cnc(N2CCc3cc(S(=O)(=O)Nc4c(F)cc(Cl)cc4F)cc(N4CCCC4=O)c32)nc1 [TP-020n] was tested, and the % of control [8] was 100%, the % of control [9] was 93% and the % of control [10] was 100%.
Compound C=CC(=O)Nc1cccc(C(=O)Nc2ccc(Nc3cc(-c4[nH]c(SC)nc4C)ccn3)cc2)c1 has a % of control [11] of 74%.
CCC(=O)N1CCN(c2ccc(-n3c(=O)ccc4cnc5ccc(-c6cnc7ccccc7c6)cc5c43)cc2C(F)(F)F)CC1 was tested, and the % of control [12] was 99%.
Compound Cc1ccc(-c2ccc3c(ccc4sc5c(c43)NC[C@@H](C)NC5=O)n2)cn1 has a % of inhibition [13] of -6%.
Compound CN(C)CCOc1ccc(-c2nc(-c3ccncc3)c(-c3ccc4c(c3)CC/C4=N\O)[nH]2)cc1 has a % of control [14] of 86%.
With O[C@H]1CC[C@H](Nc2ncc3nc(Nc4c(F)cc(F)cc4F)n([C@H]4CCOC4)c3n2)CC1 the % of control [15] was 100%.
CNC(=O)Nc1ccc(-c2nc(N3CC4CCC(C3)O4)c3cnn(C4CCC5(CC4)OCCO5)c3n2)cc1 was tested, and the % of control [16] was 95%.
With C=CC(=O)Nc1ccc(C(=O)Nc2[nH]nc3c2CN(C(=O)N[C@H](CN(C)C)c2ccccc2)C3(C)C)cc1 the % of engagement [17] was -8.6%.
With O=C(NOC[C@H](O)CO)c1ccc(F)c(F)c1Nc1ccc(I)cc1F the % of control [18] was 92%.
CC(C)(O)[C@H](F)CN1Cc2cc(NC(=O)c3cnn4cccnc34)c(N3CCOCC3)cc2C1=O was tested, and the dTM [19] was 1.9 K.
